Results reported in patent US20050107432A1, “Sigma receptor binder containing indanone derivative” (priority 2002, published 2005).
Structures can show the parent of a compound that is named as a salt.

System: Sigma receptor
Experiment: Sigma receptor binding assay (3H-DTG, guinea pig brain crude membrane fraction)
Conditions: for sigma receptor binding action: result in words, no value given; for IC50: inhibition of 3H-DTG binding to guinea pig brain crude membrane fraction, 25° C., 1 hour
Protocol: Sigma Receptor Binding Assay
(1) Preparation of Receptor
Ten male guinea pigs (Crj, Hartley, from Charles River Japan, Inc.) (body weight: 234 g to 260 g) were decapitated, exsanguinated and died. The brain was immediately removed, homogenized with ten volumes of 50 mM Tris-HCl (pH 7.4) using a Teflon homogenizer and was centrifuged at a rate of 50000× g at 4° C. for 20 minutes. The washing procedure was repeated once more under the same conditions, and the resulting crude membrane fraction was subjected to the assay.
The filter paper was transferred to a vial for radioactivity measurement, mixed with 5 mL of a liquid scintillation cocktail (Atomlight, from PACKARD), and the radioactivity on the filter was determined by a liquid scintillation counter (Model 1500, from PACKARD) for 2 minutes. The specific binding and the non-specific binding in the absence of the test compound were determined in the same way as above except for using 50% DMSO solution instead of the test compound and using a 100 μM Haloperidol solution instead of the test compound, respectively.
(3) Determination of Inhibition
The inhibitions of the test compound at individual concentrations were determined from the ratio of the specific binding in the presence of the test compound to the specific binding in the absence thereof. The dose-response curve was regressed according to a logit-log model in which the ratio of the specific binding in the presence of the test compound to the specific binding in the absence thereof was subjected to logit transformation and plotted against the common logarithm value of each concentration.

SMILES | sigma receptor binding action | IC50 [nM]
COc1cc2c(cc1OC)C(=O)C(Cl)(CC1CCN(Cc3ccccc3)CC1)C2.Cl (stereo not drawn) [Example 67, 1-Benzyl-4-[(5,6-dimethoxy-2-chloro-1-indanon)-2-yl]methylpiperidine hydrochloride] | found to have a sigma receptor binding action | 
Cl.O=C1c2ccccc2CC1CC1CCN(Cc2ccccc2)CC1 (stereo not drawn) [Example 27, 1-Benzyl-4-[(1-indanon)-2-yl]methylpiperidine hydrochloride] | found to have a sigma receptor binding action | 1.7
COc1cc2c(cc1OC)C(=O)C(F)(CCC1CCN(Cc3ccccc3)CC1)C2 (stereo not drawn) [Example 60, 1-Benzyl-4-[2-[(5,6-dimethoxy-2-fluoro-1-indanon)-2-yl]ethyl]piperidine] | found to have a sigma receptor binding action | 
COc1cc2c(cc1OC)C(=O)C(CCC1CCN(Cc3ccccc3)CC1)C2.Cl (stereo not drawn) [Example 32, 1-Benzyl-4-[2-[(5,6-dimethoxy-1-indanon)-2-yl]ethyl]piperidine hydrochloride] | found to have a sigma receptor binding action | 
CCOc1cc2c(cc1OCC)C(=O)C(F)(CC1CCN(CC3CCCCCC3)CC1)C2 (stereo not drawn) [Example 51, 1-cycloheptylmethyl-4-[(5,6-diethoxy-2-fluoro-1-indanon)-2-yl]methylpiperidine hydrochloride] |  | 1.1
CCOc1cc2c(cc1OC)C(=O)C(CC1CCN(Cc3ccccc3)CC1)C2.Cl (stereo not drawn) [Example 29, 1-Benzyl-4-[(5-ethoxy-6-methoxy-1-indanon)-2-yl]methylpiperidine hydrochloride] | found to have a sigma receptor binding action | 
CCOc1cc2c(cc1OCC)C(=O)C(F)(CC1CCN(Cc3ccccc3)CC1)C2.Cl (stereo not drawn) [Example 57, 1-Benzyl-4-[(5,6-diethoxy-2-fluoro-1-indanon)-2-yl]methylpiperidine hydrochloride] | found to have a sigma receptor binding action | 
CCOc1cc2c(cc1OCC)C(=O)C(Cl)(CC1CCN(Cc3ccccc3)CC1)C2.Cl (stereo not drawn) [Example 68, 1-Benzyl-4-[(5,6-diethoxy-2-chloro-1-indanon)-2-yl]methylpiperidine hydrochloride] | found to have a sigma receptor binding action | 2.6
COc1cc2c(cc1OC)C(=O)C(CCCC1CCN(Cc3ccccc3)CC1)C2.Cl (stereo not drawn) [Example 33, 1-Benzyl-4-[3-[(5,6-dimethoxy-1-indanon)-2-yl]propyl]piperidine hydrochloride] | found to have a sigma receptor binding action | 7.6
CCOc1cc2c(cc1OC)C(=O)C(Cl)(CC1CCN(Cc3ccccc3)CC1)C2.Cl (stereo not drawn) [Example 69, 1-Benzyl-4-[(5-ethoxy-6-methoxy-2-chloro-1-indanon)-2-yl]methylpiperidine hydrochloride] | found to have a sigma receptor binding action | 
CCCOc1cc2c(cc1OCCC)C(=O)C(F)(CC1CCN(Cc3ccccc3)CC1)C2.Cl (stereo not drawn) [Example 58, 1-Benzyl-4-[[5,6-di(1-propyloxy)-2-fluoro-1-indanon]-2-yl]methylpiperidine hydrochloride] | found to have a sigma receptor binding action | 1.3
COc1cc2c(cc1OC)C(=O)C(F)(CC1CCN(Cc3ccc(F)cc3)CC1)C2.Cl (stereo not drawn) [Example 64, 1-(4-Fluorobenzyl)-4-[(5,6-dimethoxy-2-fluoro-1-indanon)-2-yl]methylpiperidine hydrochloride] | found to have a sigma receptor binding action | 
COc1cc2c(cc1OC)C(=O)C(F)(CC1CCN(Cc3cccc(F)c3)CC1)C2.Cl (stereo not drawn) [Example 63, 1-(3-Fluorobenzyl)-4-[(5,6-dimethoxy-2-fluoro-1-indanon)-2-yl]methylpiperidine hydrochloride] | found to have a sigma receptor binding action | 
COc1cc2c(cc1OC)C(=O)C(F)(CC1CCN(Cc3ccccc3F)CC1)C2.Cl (stereo not drawn) [Example 62, 1-(2-Fluorobenzyl)-4-[(5,6-dimethoxy-2-fluoro-1-indanon)-2-yl]methylpiperidine hydrochloride] | found to have a sigma receptor binding action | 
CCCOc1cc2c(cc1OCCC)C(=O)C(CC1CCN(Cc3ccccc3)CC1)C2.Cl (stereo not drawn) [Example 31, 1-Benzyl-4-[[5,6-di(1-propyloxy)-1-indanon)-2-yl]methylpiperidine hydrochloride] | found to have a sigma receptor binding action | 
CCOc1cc2c(cc1OCC)C(=O)C(CC1CCN(Cc3ccccc3)CC1)C2.Cl (stereo not drawn) [Example 30, 1-Benzyl-4-[(5,6-diethoxy-1-indanon)-2-yl]methylpiperidine hydrochloride] | found to have a sigma receptor binding action | 3.7
CCOc1cc2c(cc1OCC)C(=O)C(F)(CC1CCN(Cc3cccc(F)c3)CC1)C2 (stereo not drawn) [Example 41, 1-(3-fluorobenzyl)-4-[(5,6-diethoxy-2-fluoro-1-indanon)-2-yl]methylpiperidine hydrochloride] |  | 3
COc1cc2c(cc1OC)C(=O)C(F)(CC1CCN(Cc3cccc(C)c3)CC1)C2.Cl (stereo not drawn) [Example 65, 1-(3-Methylbenzyl)-4-[(5,6-dimethoxy-2-fluoro-1-indanon)-2-yl]methylpiperidine hydrochloride] | found to have a sigma receptor binding action | 
COc1ccc2c(c1)CC(F)(CC1CCN(Cc3ccccc3)CC1)C2=O.Cl (stereo not drawn) [Example 55, 1-Benzyl-4-[(5-methoxy-2-fluoro-1-indanon)-2-yl]methylpiperidine hydrochloride] | found to have a sigma receptor binding action | 
CCOc1cc2c(cc1OCC)C(=O)C(F)(CC1CCN(CC3CCCCCCC3)CC1)C2 (stereo not drawn) [Example 52, 1-cyclooctylmethyl-4-[(5,6-diethoxy-2-fluoro-1-indanon)-2-yl]methylpiperidine hydrochloride] |  | 1.1
CCOc1cc2c(cc1OCC)C(=O)C(F)(CC1CCN(Cc3ccc(C)cc3)CC1)C2 (stereo not drawn) [Example 48, 1-(4-methylbenzyl)-4-[(5,6-diethoxy-2-fluoro-1-indanon)-2-yl]methylpiperidine hydrochloride] |  | 2.8
CCOc1cc2c(cc1OCC)C(=O)C(CC1CCN(Cc3ccc(Cl)cc3)CC1)C2 (stereo not drawn) [Example 13, 1-(4-chlorobenzyl)-4-[(5,6-diethoxy-1-indanon)-2-yl]methylpiperidine hydrochloride] |  | 1.6
COc1cc2c(cc1OC)C(=O)C(CC1CCN(Cc3cccc(F)c3)CC1)C2.Cl (stereo not drawn) [Example 34, 1-(3-Fluorobenzyl)-4-[(5,6-dimethoxy-1-indanon)-2-yl]methylpiperidine hydrochloride] | found to have a sigma receptor binding action | 
CCOc1cc2c(cc1OCC)C(=O)C(=CC1CCN(Cc3ccccc3)CC1)C2.Cl [Example 26, 1-Benzyl-4-[(5,6-diethoxy-1-indanon)-2-ylidene]methylpiperidine hydrochloride] | found to have a sigma receptor binding action | 
COc1cc2c(cc1OC)C(=O)C(C)(CC1CCN(Cc3ccccc3)CC1)C2.Cl (stereo not drawn) [Example 71, 1-Benzyl-4-[(5,6-dimethoxy-2-methyl-1-indanon)-2-yl]methylpiperidine hydrochloride] | found to have a sigma receptor binding action | 
